# Molecular target: T1, purified human IDO protein (Homo sapiens, UniProt P14902, E119G/P110S)
# T1 construct: 6-Histidine tag (C); made in house; host or cells: E. coli M15(pREP4) transformed with pQE70-hIDO
# Test: Enzymatic IDO assay (kynurenine formation, absorbance at 480 nm)
# Format: biochemical
# Conditions: recombinant human IDO, 200 μM L-tryptophan, pH 6.5; reported in ranges
# Experimental: The inhibitors were initially diluted in DMSO at 100 mM and were diluted in potassium phosphate 50 mM, added to the reaction mixture at final concentrations raging from 1 mM to 5 nM and preincubated with the enzyme for 5 min at 25° C. The reaction was started by addition of L-tryptophan to 200 μM and incubated 15 min at 37° C. The reaction was stopped by addition of 0.5 vol of 30% trichloroacetic acid and incubated 30 min at 60° C. to hydrolyze N-formylkynurenine to kynurenine. The reaction was centrifuged at 3400 g for 5 min to remove precipitated protein and the supernatant was reacted with 2% (w/v) of p-dimethylaminobenzaldehyde in acetic acid. The reaction was incubated 10 min at 25° C. and read at 480 nm in a spectrophotometer. […] Nonlinear regressions and determination of the IC50 values were performed using the GraphPad Prism 4 software.
# T1 sequence (P14902 whole entry P110S/E119G): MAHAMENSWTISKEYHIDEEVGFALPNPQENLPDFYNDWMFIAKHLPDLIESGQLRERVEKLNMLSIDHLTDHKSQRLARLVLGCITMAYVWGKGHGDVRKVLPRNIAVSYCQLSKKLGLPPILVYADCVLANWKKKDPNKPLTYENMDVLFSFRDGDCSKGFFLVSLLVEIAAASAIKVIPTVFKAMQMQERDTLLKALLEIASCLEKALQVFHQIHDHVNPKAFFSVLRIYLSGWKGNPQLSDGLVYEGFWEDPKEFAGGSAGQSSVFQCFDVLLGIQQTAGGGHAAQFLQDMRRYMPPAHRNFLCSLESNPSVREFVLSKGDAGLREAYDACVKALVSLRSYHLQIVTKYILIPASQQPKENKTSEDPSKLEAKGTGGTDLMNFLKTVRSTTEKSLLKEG
row,IC50,SMILES
1,< 20 µM,"NS(=O)(=O)c1ccc(COc2ccccc2-c2c[nH]cn2)cc1 [Compound 46, 4-((2-(1H-imidazol-4-yl)phenoxy)methyl) benzenesulfonamide]"
2,20 to 100 µM,"CC(C)(CCOc1ccccc1-c1c[nH]cn1)CCN1CCOCC1 [Compound 161, 4-(5-(2-(1H-imidazol-4-yl)phenoxy)-3,3-dimethylpentyl) morpholine]"
3,< 20 µM,"CNC(=O)CCC(C)(C)CCOc1ccccc1-c1c[nH]cn1 [Compound 38, 6-(2-(1H-imidazol-4-yl)phenoxy)-N,4,4-trimethylhexanamide]"
4,20 to 100 µM,"COC(=O)CCC(C)(C)CCOc1ccccc1-c1c[nH]cn1 [Compound 79, methyl 6-(2-(1H-imidazol-4-yl)phenoxy)-4,4-dimethylhexanoate]"
5,100 to 500 µM,"CC(=O)NCCCCn1cncc1-c1ccccc1 [Compound 127, N-(4-(5-phenyl-1H-imidazol-1-yl)butyl)acetamide]"
6,20 to 100 µM,"c1ccc(CCCn2cncc2-c2ccccc2)cc1 [Compound 64, 5-phenyl-1-(3-phenylpropyl)-1H-imidazole]"
7,20 to 100 µM,"Cc1ccc(Cn2cncc2-c2ccccc2)cc1 [Compound 72, 1-(4-methylbenzyl)-5-phenyl-1H-imidazole]"
8,< 20 µM,"CNC(=O)c1ccc(CCOc2ccccc2-c2c[nH]cn2)cc1 [Compound 45, 4-(2-(2-(1H-imidazol-4-yl)phenoxy)ethyl)-N-methylbenzamide]"
9,20 to 100 µM,"COc1ccc(Cn2cncc2-c2ccccc2)cc1 [Compound 68, 1-(4-methoxybenzyl)-5-phenyl-1H-imidazole]"

# Second part, the compound before the results:
row,SMILES,IC50
1,"CSc1ccccc1-c1c[nH]cn1 [Compound 1, 5-(2-(methylthio)phenyl)-1H-imidazole]",20 to 100 µM
2,"COc1ccccc1Cn1cncc1-c1ccccc1 [Compound 110, 1-(2-methoxybenzyl)-5-phenyl-1H-imidazole]",100 to 500 µM
3,"Clc1ccc(COc2ccccc2-c2cnc[nH]2)cc1 [Compound 14, 5-(2-(4-chlorobenzyloxy)phenyl)-1H-imidazole]",< 20 µM
4,"NCCn1cncc1-c1ccccc1 [Compound 118, 2-(5-phenyl-1H-imidazol-1-yl)ethanamine]",100 to 500 µM
5,"NCCCOc1ccccc1-c1cnc[nH]1 [Compound 92, 3-(2-(1H-imidazol-5-yl)phenoxy)propan-1-amine]",20 to 100 µM
6,"COC(=O)Cn1cncc1-c1ccccc1 [Compound 105, methyl 2-(5-phenyl-1H-imidazol-1-yl)acetate]",100 to 500 µM
7,"N#Cc1cccc(-c2c[nH]cn2)c1 [Compound 94, 3-(1H-imidazol-5-yl)benzonitrile]",20 to 100 µM
8,"Oc1cccc(OCc2ccc(Cl)cc2)c1-c1cnc[nH]1 [Compound 73, 3-(4-chlorobenzyloxy)-2-(1H-imidazol-5-yl)phenol]",20 to 100 µM
9,"CC(C)(CCO)CCOc1ccccc1-c1c[nH]cn1 [Compound 167, 5-(2-(1H-imidazol-4-yl)phenoxy)-3,3-dimethylpentan-1-ol]",20 to 100 µM
10,"CC(C)(C)OC(=O)NCCCCn1cncc1-c1ccccc1 [Compound 86, tert-butyl 4-(5-phenyl-1H-imidazol-1-yl)butylcarbamate]",20 to 100 µM
11,"Cc1cccc(COc2ccccc2-c2cnc[nH]2)c1 [Compound 48, 5-(2-(3-methylbenzyloxy)phenyl)-1H-imidazole]",< 20 µM
12,"CC(=O)Nc1ccc(CCOc2ccccc2-c2c[nH]cn2)cc1 [Compound 34, N-(4-(2-(2-(1H-imidazol-4-yl)phenoxy)ethyl)phenyl) acetamide]",< 20 µM
13,"Brc1cccc(-c2cnc[nH]2)c1 [Compound 27, 5-(3-bromophenyl)-1H-imidazole]",< 20 µM
14,"COC(=O)c1ccc(-c2c[nH]cn2)cc1 [Compound 115, methyl 4-(1H-imidazol-4-yl)benzoate]",100 to 500 µM
15,"CC(=O)NC1CCC(=CCOc2ccccc2-c2c[nH]cn2)CC1 (stereo not drawn) [Compound 39, N-(4-(2-(2-(1H-imidazol-4-yl)phenoxy)ethylidene)cyclohexyl)acetamide]",< 20 µM

# From patent US9174942B2, “IDO inhibitors” (NewLink Genetics Corporation, priority 2008, dated 2015)
